According to patent US12077503B2, “Substituted cyclic amides and their use as herbicides” (FMC CORPORATION, priority 2015, dated 2024):

Tests used:
Type in all cases: in vivo
rice (Oryra sativa) = assay: Test B flooded paddy test; conditions: Oryza sativa, 360 h, Flood, 250 g ai/ha; visually evaluated after 13 to 15 d; read-out: Plant response rating, Rice (0 to 100 scale where 0 is no effect and 100 is complete control)
In short: (§1)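 Visual ratings (0 none to 100 complete control) are relative to untreated plants, taken 13–15 d after treatment in a greenhouse. Test material went straight into floodwater standing 3 cm above the soil, kept constant, on plants at the 2-leaf stage.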

[1] = tested on: ducksalad (Heteranthera limosa); assay: Test B flooded paddy test; conditions: Heteranthera limosa, 360 h, Flood, 250 g ai/ha; visually evaluated after 13 to 15 d; read-out: Plant response rating, Ducksalad (0 to 100 scale where 0 is no effect and 100 is complete control)
In short: as §1

[2] = tested on: sedge, umbrella (small-flower umbrella sedge, Cyperus difformis); assay: Test B flooded paddy test; conditions: Cyperus difformis, 360 h, Flood, 250 g ai/ha; visually evaluated after 13 to 15 d; read-out: Plant response rating, Sedge, Umbrella (0 to 100 scale where 0 is no effect and 100 is complete control)
In short: as §1

[3] = tested on: barnyardgrass (Echinochloa crus-galli); assay: Test B flooded paddy test; conditions: Echinochloa crus-galli, 360 h, Flood, 250 g ai/ha; visually evaluated after 13 to 15 d; read-out: Plant response rating, Barnyardgrass (0 to 100 scale where 0 is no effect and 100 is complete control)
In short: as §1

[4] = tested on: pigweed (Amaranthus retroflexus); assay: Test A preemergence; conditions: Amaranthus retroflexus, pre-emergence, 240 h, Preemergence
Kochia (Kochia scoparia) [5] = assay: Test A preemergence; conditions: Bassia scoparia, pre-emergence, 240 h, Preemergence
In short: (§2)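 Preemergence soil spray on seeded pots or post-emergence spray on 1–2 leaf plants, in loam–sand blend. Greenhouse ~10 d. Visual rating 0–100 against untreated plants.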

[6] = tested on: ragweed (common ragweed, Ambrosia elatior); assay: Test A preemergence; conditions: Ambrosia artemisiifolia, pre-emergence, 240 h, Preemergence
In short: as §2

[7] = tested on: giant foxtail (Setaria faberii); assay: Test A preemergence; conditions: Setaria faberi, pre-emergence, 240 h, Preemergence
In short: as §2

[8] = tested on: ryegrass, Italian (Italian ryegrass, Lolium multiflorum); assay: Test A preemergence; conditions: Lolium multiflorum, pre-emergence, 240 h, Preemergence
In short: as §2

[9] = tested on: barnyardgrass (Echinochloa crus-galli); assay: Test A preemergence; conditions: Echinochloa crus-galli, pre-emergence, 240 h, Preemergence
In short: as §2

[10] = tested on: Galium (catchweed bedstraw, Galium aparine); assay: Test A postemergence; conditions: Galium, post-emergence, 240 h, Postemergence
In short: as §2

[11] = tested on: pigweed (Amaranthus retroflexus); assay: Test A postemergence; conditions: Amaranthus retroflexus, post-emergence, 240 h, Postemergence
In short: as §2

Kochia (Kochia scoparia) [12] = assay: Test A postemergence; conditions: Bassia scoparia, post-emergence, 240 h, Postemergence
In short: as §2

[13] = tested on: ragweed (common ragweed, Ambrosia elatior); assay: Test A postemergence; conditions: Ambrosia artemisiifolia, post-emergence, 240 h, Postemergence
In short: as §2

[14] = tested on: wheat (Triticum aestivum); assay: Test A postemergence; conditions: Triticum aestivum, post-emergence, 240 h, Postemergence
In short: as §2

[15] = tested on: blackgrass (Alopecurus myosuroides); assay: Test A postemergence; conditions: Alopecurus myosuroides, post-emergence, 240 h, Postemergence
In short: as §2

[16] = tested on: giant foxtail (Setaria faberii); assay: Test A postemergence; conditions: Setaria faberi, post-emergence, 240 h, Postemergence
In short: as §2

[17] = tested on: ryegrass, Italian (Italian ryegrass, Lolium multiflorum); assay: Test A postemergence; conditions: Lolium multiflorum, post-emergence, 240 h, Postemergence
In short: as §2

corn (Zea mays) = assay: Test A postemergence; conditions: Zea mays, post-emergence, 240 h, Postemergence
In short: as §2

[18] = tested on: barnyardgrass (Echinochloa crus-galli); assay: Test A postemergence; conditions: Echinochloa crus-galli, post-emergence, 240 h, Postemergence
In short: as §2

In the case of `CN1C[C@H](c2ccc(C(F)(F)F)cc2)[C@@H](C(=O)Nc2cccc(F)n2)C1=O` [Compound 1400], the pest or weed control at 250 g/ha (rice (Oryra sativa)) is reported as 0%, the pest or weed control at 250 g/ha [1] is reported as 100% and the pest or weed control at 250 g/ha [2] is reported as 0%. It also gave a pest or weed control at 250 g/ha [3] of 80%, a pest or weed control at 31 g/ha ([4]; 31 g ai/ha, 0 to 100 scale where 0 is no effect and 100 is complete control, read-out: Pigweed plant response rating) of 80% and a pest or weed control at 125 g/ha ([4]; 125 g ai/ha, 0 to 100 scale (0 no effect, 100 complete control), read-out: Plant response rating, Pigweed) of 80%. It also gave a pest or weed control at 31 g/ha (Kochia (Kochia scoparia) [5]; 31 g ai/ha, 0 to 100 scale where 0 is no effect and 100 is complete control, read-out: Kochia plant response rating) of 60%, a pest or weed control at 125 g/ha (Kochia (Kochia scoparia) [5]; 125 g ai/ha, 0 to 100 scale (0 no effect, 100 complete control), read-out: Plant response rating, Kochia) of 70% and a pest or weed control at 31 g/ha ([6]; 31 g ai/ha, 0 to 100 scale where 0 is no effect and 100 is complete control, read-out: Ragweed plant response rating) of 0%. It also gave a pest or weed control at 125 g/ha ([6]; 125 g ai/ha, 0 to 100 scale (0 no effect, 100 complete control), read-out: Plant response rating, Ragweed) of 70%, a pest or weed control at 31 g/ha ([7]; 31 g ai/ha, 0 to 100 scale where 0 is no effect and 100 is complete control, read-out: Foxtail, Giant plant response rating) of 90% and a pest or weed control at 125 g/ha ([7]; 125 g ai/ha, 0 to 100 scale (0 no effect, 100 complete control), read-out: Plant response rating, Foxtail, Giant) of 90%. It also gave a pest or weed control at 31 g/ha ([8]; 31 g ai/ha, 0 to 100 scale where 0 is no effect and 100 is complete control, read-out: Ryegrass, Italian plant response rating) of 0%, a pest or weed control at 125 g/ha ([8]; 125 g ai/ha, 0 to 100 scale (0 no effect, 100 complete control), read-out: Plant response rating, Ryegrass, Italian) of 30% and a pest or weed control at 31 g/ha ([9]; 31 g ai/ha, 0 to 100 scale where 0 is no effect and 100 is complete control, read-out: Barnyardgrass plant response rating) of 90%. For the same molecule, the pest or weed control at 125 g/ha ([9]; 125 g ai/ha, 0 to 100 scale (0 no effect, 100 complete control), read-out: Plant response rating, Barnyardgrass) was 90%, the pest or weed control at 31 g/ha ([10]; 31 g ai/ha, 0 is no effect, 100 is complete control, read-out: Galium plant response rating (0 to 100 scale)) was 20% and the pest or weed control at 125 g/ha ([10]; 125 g ai/ha, visual injury after approx. 10 d, 0 to 100 scale, 0 no effect, 100 complete control, read-out: Plant response rating, Galium) was 70%. The pest or weed control at 31 g/ha ([11]; 31 g ai/ha, 0 is no effect, 100 is complete control, read-out: Pigweed plant response rating (0 to 100 scale)) was 50%, the pest or weed control at 125 g/ha ([11]; 125 g ai/ha, visual injury after approx. 10 d, 0 to 100 scale, 0 no effect, 100 complete control, read-out: Plant response rating, Pigweed) was 60% and the pest or weed control at 31 g/ha (Kochia (Kochia scoparia) [12]; 31 g ai/ha, 0 is no effect, 100 is complete control, read-out: Kochia plant response rating (0 to 100 scale)) was 30%. For the same molecule, the pest or weed control at 125 g/ha (Kochia (Kochia scoparia) [12]; 125 g ai/ha, visual injury after approx. 10 d, 0 to 100 scale, 0 no effect, 100 complete control, read-out: Plant response rating, Kochia) was 70%, the pest or weed control at 31 g/ha ([13]; 31 g ai/ha, 0 is no effect, 100 is complete control, read-out: Ragweed plant response rating (0 to 100 scale)) was 0% and the pest or weed control at 125 g/ha ([13]; 125 g ai/ha, visual injury after approx. 10 d, 0 to 100 scale, 0 no effect, 100 complete control, read-out: Plant response rating, Ragweed) was 50%. For the same molecule, the plant injury at 31 g/ha ([14]; 31 g ai/ha, 0 is no effect, 100 is complete control, read-out: Wheat plant response rating (0 to 100 scale)) was 0%, the plant injury at 125 g/ha ([14]; 125 g ai/ha, visual injury after approx. 10 d, 0 to 100 scale, 0 no effect, 100 complete control, read-out: Plant response rating, Wheat) was 60% and the pest or weed control at 31 g/ha ([15]; 31 g ai/ha, 0 is no effect, 100 is complete control, read-out: Blackgrass plant response rating (0 to 100 scale)) was 30%. The pest or weed control at 125 g/ha ([15]; 125 g ai/ha, visual injury after approx. 10 d, 0 to 100 scale, 0 no effect, 100 complete control, read-out: Plant response rating, Blackgrass) was 70%, the pest or weed control at 31 g/ha ([16]; 31 g ai/ha, 0 is no effect, 100 is complete control, read-out: Foxtail, Giant plant response rating (0 to 100 scale)) was 70% and the pest or weed control at 125 g/ha ([16]; 125 g ai/ha, visual injury after approx. 10 d, 0 to 100 scale, 0 no effect, 100 complete control, read-out: Plant response rating, Foxtail, Giant) was 90%. The pest or weed control at 31 g/ha ([17]; 31 g ai/ha, 0 is no effect, 100 is complete control, read-out: Ryegrass, Italian plant response rating (0 to 100 scale)) was 30%, the pest or weed control at 125 g/ha ([17]; 125 g ai/ha, visual injury after approx. 10 d, 0 to 100 scale, 0 no effect, 100 complete control, read-out: Plant response rating, Ryegrass, Italian) was 50% and the plant injury at 31 g/ha (corn (Zea mays); 31 g ai/ha, 0 is no effect, 100 is complete control, read-out: Corn plant response rating (0 to 100 scale)) was 20%. The Corn plant response rating (crop injury, 0 = no effect, 100 = complete kill) at 125 g/ha (corn (Zea mays); 125 g ai/ha, visual injury after approx. 10 d, 0 to 100 scale, 0 no effect, 100 complete control) was 40%, the pest or weed control at 31 g/ha ([18]; 31 g ai/ha, 0 is no effect, 100 is complete control, read-out: Barnyardgrass plant response rating (0 to 100 scale)) was 70% and the pest or weed control at 125 g/ha ([18]; 125 g ai/ha, visual injury after approx. 10 d, 0 to 100 scale, 0 no effect, 100 complete control, read-out: Plant response rating, Barnyardgrass) was 90%.
